Reference: the NIST ThermoML archive (doi:10.1016/j.jct.2018.09.009)

Columns and labels:
[1] = molar heat capacity at constant volume; xn = mol fraction of the nth substance listed; conditions: Liquid, Vacuum adiabatic calorimetry
[2] = xn = mol fraction of the nth substance listed; conditions: Liquid, isochoric method

C=C(F)C(F)(F)F [2,3,3,3-tetrafluoro-1-propene] + CCC
Conditions	mass density [kg/m3]	molar heat capacity at constant volume [J/K/mol]
[1], 255.48 K, 2690 kPa, x1 = 0.607	–	81.79
[1], 257.09 K, 2443 kPa, x1 = 0.825	–	89.48
[1], 257.86 K, 4335 kPa, x1 = 0.607	–	82.48
[1], 259.43 K, 4057 kPa, x1 = 0.825	–	89.48
[1], 260.23 K, 5972 kPa, x1 = 0.607	–	82.92
[1], 261.79 K, 5682 kPa, x1 = 0.825	–	90.4
[1], 262.6 K, 7603 kPa, x1 = 0.607	–	82.74
[1], 264.12 K, 7292 kPa, x1 = 0.825	–	90.81
[1], 264.95 K, 9223 kPa, x1 = 0.607	–	83.87
[1], 266.43 K, 8891 kPa, x1 = 0.825	–	90.2
[1], 267.27 K, 10823 kPa, x1 = 0.607	–	83.61
[1], 268.75 K, 10488 kPa, x1 = 0.825	–	91.52
[1], 269.57 K, 12416 kPa, x1 = 0.607	–	84.82
[1], 271.06 K, 12087 kPa, x1 = 0.825	–	91.21
[1], 275.52 K, 2097 kPa, x1 = 0.825	–	93.05
[1], 276.02 K, 1993 kPa, x1 = 0.607	–	87.59
[1], 277.84 K, 3440 kPa, x1 = 0.825	–	93.86
[1], 278.37 K, 3320 kPa, x1 = 0.607	–	87.07
[1], 280.2 K, 4817 kPa, x1 = 0.825	–	94.67
[1], 280.75 K, 4661 kPa, x1 = 0.607	–	88.46
[1], 282.57 K, 6197 kPa, x1 = 0.825	–	95.49
[1], 283.13 K, 6012 kPa, x1 = 0.607	–	88.11
[1], 284.92 K, 7561 kPa, x1 = 0.825	–	95.18
[1], 285.51 K, 7357 kPa, x1 = 0.607	–	88.54
[1], 287.24 K, 8908 kPa, x1 = 0.825	–	95.69
[1], 287.89 K, 8694 kPa, x1 = 0.607	–	88.89
[1], 289.57 K, 10249 kPa, x1 = 0.825	–	96.1
[1], 290.27 K, 10038 kPa, x1 = 0.607	–	89.15
[1], 291.9 K, 11593 kPa, x1 = 0.825	–	97.32
[1], 292.66 K, 11390 kPa, x1 = 0.607	–	89.15
[1], 295.03 K, 12722 kPa, x1 = 0.607	–	89.41
[1], 295.93 K, 1917 kPa, x1 = 0.825	–	96.81
[1], 298.32 K, 3042 kPa, x1 = 0.825	–	97.73
[1], 300.77 K, 4193 kPa, x1 = 0.825	–	97.63
[1], 302.78 K, 1793 kPa, x1 = 0.607	–	91.49
[1], 303.23 K, 5349 kPa, x1 = 0.825	–	97.53
[1], 305.28 K, 2835 kPa, x1 = 0.607	–	91.83
[1], 305.69 K, 6504 kPa, x1 = 0.825	–	99.26
[1], 307.82 K, 3898 kPa, x1 = 0.607	–	91.4
[1], 308.14 K, 7659 kPa, x1 = 0.825	–	98.75
[1], 310.37 K, 4961 kPa, x1 = 0.607	–	92.35
[1], 310.6 K, 8808 kPa, x1 = 0.825	–	100.68
[1], 312.91 K, 6022 kPa, x1 = 0.607	–	93.48
[1], 313.06 K, 9957 kPa, x1 = 0.825	–	100.58
[1], 314.95 K, 2140 kPa, x1 = 0.285	–	84.58
[1], 315.46 K, 7086 kPa, x1 = 0.607	–	93.82
[1], 315.53 K, 11107 kPa, x1 = 0.825	–	102.31
[1], 317.06 K, 2127 kPa, x1 = 0.521	–	93.58
[1], 317.4 K, 3029 kPa, x1 = 0.285	–	85.48
[1], 318.01 K, 8150 kPa, x1 = 0.607	–	94.52
[1], 319.49 K, 2066 kPa, x1 = 0.825	–	102.21
[1], 319.6 K, 2994 kPa, x1 = 0.521	–	93.99
[1], 319.85 K, 3919 kPa, x1 = 0.285	–	86.63
[1], 320.54 K, 9207 kPa, x1 = 0.607	–	95.55
[1], 322.06 K, 2960 kPa, x1 = 0.825	–	103.02
[1], 322.15 K, 3867 kPa, x1 = 0.521	–	94.07
[1], 322.29 K, 4807 kPa, x1 = 0.285	–	87.15
[1], 323.08 K, 10263 kPa, x1 = 0.607	–	96.25
[1], 324.62 K, 3854 kPa, x1 = 0.825	–	104.35
[1], 324.7 K, 4739 kPa, x1 = 0.521	–	94.55
[1], 324.78 K, 5712 kPa, x1 = 0.285	–	87.47
[1], 325.63 K, 11326 kPa, x1 = 0.607	–	96.68
[1], 327.17 K, 4744 kPa, x1 = 0.825	–	105.16
[1], 327.23 K, 5608 kPa, x1 = 0.521	–	95.28
[1], 327.29 K, 6626 kPa, x1 = 0.285	–	87.72
[1], 329.73 K, 5637 kPa, x1 = 0.825	–	105.87
[1], 329.76 K, 6474 kPa, x1 = 0.521	–	95.44
[1], 329.79 K, 7534 kPa, x1 = 0.285	–	87.53
[1], 332.28 K, 8436 kPa, x1 = 0.285	–	87.98
[1], 332.3 K, 6534 kPa, x1 = 0.825	–	105.97
[1], 332.3 K, 7345 kPa, x1 = 0.521	–	94.79
[1], 334.76 K, 9337 kPa, x1 = 0.285	–	88.36
[1], 334.85 K, 7427 kPa, x1 = 0.825	–	106.28
[1], 334.85 K, 8221 kPa, x1 = 0.521	–	95.92
[1], 337.25 K, 10238 kPa, x1 = 0.285	–	88.81
[1], 337.4 K, 8319 kPa, x1 = 0.825	–	106.89
[1], 337.4 K, 9098 kPa, x1 = 0.521	–	96.32
[1], 339.71 K, 11132 kPa, x1 = 0.285	–	88.87
[1], 339.93 K, 9963 kPa, x1 = 0.521	–	96.24
[1], 339.94 K, 9209 kPa, x1 = 0.825	–	106.69
[1], 342.17 K, 12023 kPa, x1 = 0.285	–	89.07
[1], 342.44 K, 10822 kPa, x1 = 0.521	–	96.32
[1], 342.47 K, 10092 kPa, x1 = 0.825	–	106.89
[1], 344.64 K, 12917 kPa, x1 = 0.285	–	89.19
[1], 344.94 K, 11680 kPa, x1 = 0.521	–	96.56
[1], 345.02 K, 10985 kPa, x1 = 0.825	–	107.2
[1], 347.09 K, 13803 kPa, x1 = 0.285	–	89.32
[1], 347.44 K, 12532 kPa, x1 = 0.521	–	96.89
[1], 347.55 K, 11870 kPa, x1 = 0.825	–	106.38
[2], 254.28 K, 1867 kPa, x1 = 0.607	969.9	–
[2], 255.92 K, 1645 kPa, x1 = 0.825	1109.8	–
[2], 256.67 K, 3513 kPa, x1 = 0.607	969.4	–
[2], 258.25 K, 3241 kPa, x1 = 0.825	1109.2	–
[2], 259.05 K, 5156 kPa, x1 = 0.607	968.9	–
[2], 260.61 K, 4872 kPa, x1 = 0.825	1108.7	–
[2], 261.41 K, 6787 kPa, x1 = 0.607	968.5	–
[2], 262.96 K, 6492 kPa, x1 = 0.825	1108.1	–
[2], 263.78 K, 8419 kPa, x1 = 0.607	968	–
[2], 265.27 K, 8092 kPa, x1 = 0.825	1107.6	–
[2], 266.11 K, 10027 kPa, x1 = 0.607	967.5	–
[2], 267.59 K, 9690 kPa, x1 = 0.825	1107	–
[2], 268.42 K, 11618 kPa, x1 = 0.607	967	–
[2], 269.9 K, 11286 kPa, x1 = 0.825	1106.5	–
[2], 270.72 K, 13214 kPa, x1 = 0.607	966.5	–
[2], 272.22 K, 12888 kPa, x1 = 0.825	1105.9	–
[2], 290.26 K, 1730 kPa, x1 = 0.521	821.2	–
[2], 292.5 K, 2803 kPa, x1 = 0.521	820.9	–
[2], 294.78 K, 3896 kPa, x1 = 0.521	820.6	–
[2], 297.13 K, 5024 kPa, x1 = 0.521	820.3	–
[2], 299.47 K, 6148 kPa, x1 = 0.521	820	–
[2], 301.86 K, 7296 kPa, x1 = 0.521	819.7	–
[2], 304.23 K, 8438 kPa, x1 = 0.521	819.4	–
[2], 306.62 K, 9582 kPa, x1 = 0.521	819.1	–
[2], 309.04 K, 10744 kPa, x1 = 0.521	818.8	–
[2], 311.5 K, 11920 kPa, x1 = 0.521	818.5	–
[2], 313.73 K, 1699 kPa, x1 = 0.285	626	–
[2], 313.86 K, 13057 kPa, x1 = 0.521	818.2	–
[2], 316.16 K, 2581 kPa, x1 = 0.285	625.9	–
[2], 318.63 K, 3477 kPa, x1 = 0.285	625.7	–
[2], 321.06 K, 4361 kPa, x1 = 0.285	625.5	–
[2], 323.51 K, 5252 kPa, x1 = 0.285	625.3	–
[2], 326.04 K, 6172 kPa, x1 = 0.285	625.1	–
[2], 328.54 K, 7079 kPa, x1 = 0.285	624.9	–
[2], 331.04 K, 7988 kPa, x1 = 0.285	624.7	–
[2], 333.51 K, 8883 kPa, x1 = 0.285	624.5	–
[2], 336.01 K, 9790 kPa, x1 = 0.285	624.3	–
[2], 338.48 K, 10686 kPa, x1 = 0.285	624.1	–
[2], 340.94 K, 11578 kPa, x1 = 0.285	624	–
[2], 343.4 K, 12468 kPa, x1 = 0.285	623.8	–
[2], 345.88 K, 13366 kPa, x1 = 0.285	623.6	–
[2], 348.3 K, 14239 kPa, x1 = 0.285	623.4	–
